# Where “and” joins values, the source holds several entries; their conditions need not be identical. Equal entries are not always repeated.
# Assays:
# [1] = Whole blood-to-plasma partition, rat blood; assay type: in vitro ADME
# Experimental: The whole blood and plasma samples were incubated at 37°C for up to 1 h. Serial samples (150 µL) were collected at different time points (0, 10, and 60 min) and transferred into new tubes. The whole blood samples were then centrifuged at 1700 g for 15 min to harvest plasma.
# [2] = target: T1, CYP1A2 (Homo sapiens, UniProt P05177); test: Reversible CYP inhibition in HLM, CYP1A2 (phenacetin); assay type: in vitro ADME; conditions: for enzyme activity remaining: CYP1A2, HLM
# T1 construct: tissue Life Technologies (Durham, NC, USA); host or cells: human liver microsomes
# T1 sequence (P05177 1-516): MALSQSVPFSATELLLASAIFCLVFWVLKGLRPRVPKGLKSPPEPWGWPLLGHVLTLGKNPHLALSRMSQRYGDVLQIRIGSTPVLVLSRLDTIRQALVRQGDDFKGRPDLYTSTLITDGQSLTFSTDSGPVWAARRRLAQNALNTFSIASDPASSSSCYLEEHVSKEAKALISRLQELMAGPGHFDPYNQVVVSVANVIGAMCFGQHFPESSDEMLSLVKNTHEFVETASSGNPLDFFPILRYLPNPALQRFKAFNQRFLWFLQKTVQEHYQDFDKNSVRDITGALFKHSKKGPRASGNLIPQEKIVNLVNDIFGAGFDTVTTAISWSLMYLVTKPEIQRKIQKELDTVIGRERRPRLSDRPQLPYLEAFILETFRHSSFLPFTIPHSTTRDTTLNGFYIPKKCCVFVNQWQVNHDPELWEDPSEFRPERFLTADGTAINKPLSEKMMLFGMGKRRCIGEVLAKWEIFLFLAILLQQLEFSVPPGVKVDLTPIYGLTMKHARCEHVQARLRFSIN
# Experimental: (§1) The markers used to determine the activities of CYP isoforms were phenacetin O-deethylation for CYP1A2 (probe substrate: 50 µM phenacetin), bupropion hydroxylation for CYP2B6 (probe substrate: 70 µM bupropion), paclitaxel 6α-hydroxylation for CYP2C8 (probe substrate: 10 µM paclitaxel), diclofenac 4′-hydroxylation for CYP2C9 (probe substrate: 5 µM diclofenac), S-(+)-mephenytoin 4′-hydroxylation for CYP2C19 (probe substrate: 20 µM S-(+)-mephenytoin), dextromethorphan O-demethylation for CYP2D6 (probe substrate: 6 µM dextromethorphan), chlorzoxazone 6′-hydroxylation for CYP2E1 (probe substrate: 70 µM chlorzoxazone), and testosterone 6β-hydroxylation and midazolam 1′-hydroxylation for CYP3A4/5 (probe substrate: 45 µM testosterone and 5 µM midazolam). […] Alpha-naphthoflavone (0.04 µM), 2-phenyl-2-(1-piperidinyl)propane (5 µM), quercetin (1 µM), sulfaphenazole (0.5 µM), ticlopidine (4 µM), quinidine (0.2 µM), diethyldithiocarbamate (20 µM), and ketoconazole (0.05 µM) were used as positive inhibitors of CYP1A2, 2B6, 2C8, 2C9, 2C19, 2D6, 2E1, and 3A4, respectively. The vehicle control was prepared in the same composition as inhibitor solutions but free of inhibitors. The concentrations of probe substrates were close to Km values that were determined in-house and within the range recommended by the FDA ([Huang et al., 2007]). Reaction mixtures were incubated at 37°C for 5, 20, or 30 min, depending on the probe substrates of CYP isoforms. The reactions were terminated by adding cold acetonitrile containing IS, and the terminated incubation mixtures were centrifuged at 3,000 g for 10 min before LC-MS/MS analysis.
# [3] = target: T2, CYP2B6 (Homo sapiens, UniProt P20813); test: Reversible CYP inhibition in HLM, CYP2B6 (bupropion); assay type: in vitro ADME; conditions: for enzyme activity remaining: CYP2B6, HLM
# T2 construct: tissue Life Technologies (Durham, NC, USA); host or cells: human liver microsomes
# T2 sequence (P20813 1-491): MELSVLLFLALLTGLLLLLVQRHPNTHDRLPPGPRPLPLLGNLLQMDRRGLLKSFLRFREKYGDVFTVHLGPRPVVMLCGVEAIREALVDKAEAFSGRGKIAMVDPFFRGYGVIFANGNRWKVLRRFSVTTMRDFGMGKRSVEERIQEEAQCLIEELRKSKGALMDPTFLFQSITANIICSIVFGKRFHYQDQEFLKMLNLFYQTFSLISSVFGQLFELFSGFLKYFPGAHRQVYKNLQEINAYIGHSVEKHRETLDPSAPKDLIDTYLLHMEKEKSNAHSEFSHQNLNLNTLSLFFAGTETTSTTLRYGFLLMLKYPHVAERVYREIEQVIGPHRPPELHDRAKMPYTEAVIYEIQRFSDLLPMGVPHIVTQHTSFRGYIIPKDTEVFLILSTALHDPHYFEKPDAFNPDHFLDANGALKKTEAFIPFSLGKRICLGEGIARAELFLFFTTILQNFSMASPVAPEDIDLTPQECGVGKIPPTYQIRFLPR
# Experimental: as §1
# [4] = tested on: CYP1A2; test: CYP induction in human hepatocytes, CYP1A2 enzyme activity
# Experimental: […] […] […] Enzyme activity for each CYP isoform was reported as a fold change over vehicle control and the percent of positive control (detailed calculation in Supplementary 1.1). Hepatocytes were harvested with a lysis buffer from RNeasy 96 Kit (Qiagen Inc., Germantown, MD, USA) to isolate RNA, which was analyzed by real-time quantitative polymerase chain reaction (RT-PCR). […] Emax (the maximal observed induction) and EC50 (the concentration that supports half-maximal induction) were estimated by non-linear regression of fold increase in CYP mRNA expression versus concentration plots.
# The fold of vehicle control and the percent of positive control were calculated with the formulas below:
# Fold of vehicle control = CYPs activity of test compound (or positive control) treated sample / CYPs activity of vehicle control treated sample
# % of positive control = [(fold change in treated sample)-1] / [(fold change in positive control)-1] × 100
# Based on the enzyme activity, a minimum of 2-fold increase compared to vehicle control for the positive control and ≥40% of the positive control for the test article was considered as the cutoff for a positive signal in in vitro induction assay.
smiles,measurement,setting,value
C[C@H](Nc1ncnc(N)c1C#N)c1cc2ncc(Cl)n2nc1-c1ccccc1 [Amdizalisib],RB,"[1]; rat blood, 1 μM, 0 min",1.08
same,RB,"[1]; rat blood, 1 μM, 60 min",1.03
same,fuB,"[1]; rat blood, 10 min",8.41%
same,fuB,"[1]; rat, 0 min, 1 µM",9.11%
same,fup,"[1]; rat, 1 µM",0.0980
same,RB,"[1]; rat, 10 min, 1 µM",1.16
same,fuB,"[1]; rat, 60 min, 1 µM",9.49%
same,IC50,[2],> 50 µM
same,enzyme activity remaining,[2]; 0.08 μM,104% and 96.1%
same,enzyme activity remaining,[2]; 0.4 μM,102% and 99.1%
same,enzyme activity remaining,[2]; 2 μM,94.1% and 95.9%
same,enzyme activity remaining,[2]; 10 μM,97.6% and 90.1%
same,enzyme activity remaining,[2]; 50 μM,99.1% and 99.6%
same,enzyme activity remaining,[3]; 0.4 μM,100% and 98.9%
same,enzyme activity remaining,[3]; 2 μM,96.2% and 92.1%
same,enzyme activity remaining,[3]; 5 μM,97.4% and 95.1%
same,enzyme activity remaining,[3]; 10 μM,97.7% and 96.6%
same,enzyme activity remaining,[3]; 25 μM,87.6%
same,enzyme activity remaining,[3]; 50 μM,79.7% and 77.1%
same,IC50,"[3]; HLM, reversible, without pre-incubation",> 50 µM
same,Enzyme activity Percent of PC (%),"[4]; CYP1A2, donor seven, 1 µM",1.00%
same,Enzyme activity Percent of PC (%),"[4]; CYP1A2, donor seven, 3 µM",-12.5%
same,Enzyme activity Percent of PC (%),"[4]; CYP1A2, donor seven, 10 µM",16.5%
same,Enzyme activity Percent of PC (%),"[4]; CYP1A2, donor seven, 20 µM",9.00%
same,Enzyme activity Percent of PC (%),"[4]; CYP1A2, donor seven, 30 µM",16.6%
same,Enzyme activity Percent of PC (%),"[4]; CYP1A2, donor six, 1 µM",2.40%
same,Enzyme activity Percent of PC (%),"[4]; CYP1A2, donor six, 3 µM",3.90%
same,Enzyme activity Percent of PC (%),"[4]; CYP1A2, donor six, 10 µM",7.60%
same,Enzyme activity Percent of PC (%),"[4]; CYP1A2, donor six, 20 µM",14.9%
same,Enzyme activity Percent of PC (%),"[4]; CYP1A2, donor six, 30 µM",7.30%
same,Enzyme activity Percent of PC (%),"[4]; CYP1A2, donor two, 1 µM",1.50%
same,Enzyme activity Percent of PC (%),"[4]; CYP1A2, donor two, 3 µM",0.30%
same,Enzyme activity Percent of PC (%),"[4]; CYP1A2, donor two, 10 µM",7.30%
same,Enzyme activity Percent of PC (%),"[4]; CYP1A2, donor two, 20 µM",8.90%
same,Enzyme activity Percent of PC (%),"[4]; CYP1A2, donor two, 30 µM",14.6%
same,induction of CYP1A2 enzyme activity,"[4]; up to 30.0 µM, all three donors",not considered an inducer
